Tests used:
rat [1] = details: Sub-acute repeat dose toxicity, Oral, Gavage/Intubation, dose end: 14 day, group: systemic
rat [2] = details: Sub-acute repeat dose toxicity, sprague dawley, Oral, Gavage/Intubation, dose end: 14 day, group: systemic
dog [3] = details: Sub-acute repeat dose toxicity; beagle; Oral; Gavage/Intubation; dose end: 14 day; group: systemic; systemic / in life observation / clinical signs / abnormal feces
mouse [4] = details: Subchronic oral toxicity in rodents, b6c3f1, Dermal, Topical, dose end: 14 week, group: systemic
rat [5] = details: Sub-acute dermal toxicity, fischer, Topical, dose end: 2 week, group: systemic, systemic / pathology microscopic / skin / hyperkeratosis + systemic / pathology microscopic / skin / hyperplasia + systemic / pathology …
mouse [6] = details: Sub-acute dermal toxicity, b6c3f1, Topical, dose end: 2 week, group: systemic, systemic / pathology gross / skin / [other] + systemic / pathology gross / skin / thickened + systemic / pathology gross / skin / ulcer + …
rat [7] = details: Carcinogenicity, fischer, Dermal, Topical, dose end: 105 week, group: systemic
rat [8] = details: Sub-acute dermal toxicity, wistar, Topical, dose end: 21 day, group: systemic, systemic / in life observation / clinical signs / erythema + systemic / in life observation / clinical signs / skin ulceration + systemic / …
dog [9] = details: Other (NonGuideline or Guideline Not Listed); beagle; Oral; Feed; dose end: 13 week; group: cannot be grouped; systemic / clinical chemistry / thyroxine (t4) / thyroxine (t4), total + systemic / clinical chemistry / triiodothyronine (t3) / …
rat [10] = details: Subchronic dermal toxicity, fischer, Topical, dose end: 14 week, group: systemic
dog [11] = details: Subchronic oral toxicity in nonrodent, beagle, Feed, dose end: 90 day, group: systemic, systemic / organ weight / ovary / relative to body weight + systemic / organ weight / thyroid gland / relative to body weight
rat [12] = details: Prenatal developmental toxicity study, sprague dawley, Oral, Gavage/Intubation, dose end: 15 GD
mouse [13] = details: Carcinogenicity; b6c3f1; Dermal; Topical; dose end: 105 week; group: systemic; systemic / pathology microscopic / skin / hyperplasia + systemic / pathology microscopic / skin / inflammation
dog [14] = details: Subchronic oral toxicity in nonrodent, beagle, Feed, dose end: 90 day, group: systemic
rat [15] = details: Other (NonGuideline or Guideline Not Listed), Oral, Feed, dose end: 111 PND, group: cannot be grouped
rat [16] = details: Subchronic oral toxicity in rodents, fischer, Gavage/Intubation, dose end: 13 week, group: systemic
mouse [17] = details: Subchronic oral toxicity in rodents, b6c3f1, Gavage/Intubation, dose end: 13 week, group: systemic, systemic / in life observation / body weight / body weight
rat [18] = details: Carcinogenicity; fischer; Oral; Gavage/Intubation; dose end: 103 week; group: systemic; systemic / in life observation / body weight / body weight
mouse [19] = details: Carcinogenicity, b6c3f1, Oral, Gavage/Intubation, dose end: 103 week, group: systemic
[20] = systemic / in life observation / clinical signs / salivation
[21] = systemic / in life observation / clinical signs / urine staining - perineum + systemic / in life observation / clinical signs / salivation
[22] = systemic / clinical chemistry / glucose / glucose + systemic / clinical chemistry / urea nitrogen / urea nitrogen + systemic / clinical …
[23] = systemic / organ weight / lung / absolute + systemic / organ weight / lung / relative to body weight
[24] = systemic / organ weight / lung / absolute + systemic / organ weight / lung / relative to body weight + systemic / organ weight / liver / …
[25] = systemic / pathology gross / skin / [other] + systemic / pathology microscopic / skin / hyperkeratosis + systemic / pathology microscopic / …
[26] = systemic / pathology microscopic / skin / hyperkeratosis + systemic / pathology microscopic / skin / inflammation + systemic / pathology …
[27] = systemic / pathology microscopic / skin / hyperkeratosis
[28] = systemic / pathology microscopic / skin / hyperkeratosis + systemic / pathology microscopic / skin / hyperplasia + systemic / pathology …
[29] = group: developmental, developmental / developmental malformation / [other] / [other]
[30] = group: maternal, systemic / in life observation / body weight / body weight gain + reproductive / reproductive performance / resorptions / resorptions
[31] = systemic / pathology microscopic / kidney / pigmentation + systemic / pathology microscopic / spleen / hematopoietic cell proliferation
[32] = systemic / in life observation / body weight / body weight gain + systemic / in life observation / food consumption / food consumption
[33] = systemic / in life observation / body weight / body weight gain + systemic / in life observation / food consumption / food consumption + …
[34] = systemic / in life observation / body weight / body weight + systemic / in life observation / mortality / mortality + systemic / pathology …
[35] = systemic / pathology microscopic / liver / hypertrophy + systemic / pathology microscopic / liver / necrosis + systemic / pathology …

O=C(O)CCN(C1(C(=O)NO)CCCC1)S(=O)(=O)c1ccc(Oc2ccc(F)cc2)cc1
LEL (rat [1]; [20]): 300 mg/kg/day | NEL (rat [1]; [20]): < 300 mg/kg/day | LOAEL (rat [1]; [21]): > 500 mg/kg/day | NOAEL (rat [1]; [21]): ≥ 500 mg/kg/day | LEL (rat [2]; systemic / clinical chemistry / glucose / glucose + systemic / clinical chemistry / urea nitrogen / urea nitrogen): 150 mg/kg/day | LOAEL (rat [2]; [22]): > 500 mg/kg/day | NOAEL (rat [2]; [22]): ≥ 500 mg/kg/day | LEL (dog [3]): 250 mg/kg/day | LOAEL (dog [3]): > 250 mg/kg/day | NEL (dog [3]): 50 mg/kg/day | NOAEL (dog [3]): ≥ 250 mg/kg/day

N#CCCC(Br)(C#N)CBr (stereo not drawn) [1,2-Dibromo-2,4-dicyanobutane]
LEL (mouse [4]; [23]): 0.2 mg/kg/day | NEL (mouse [4]; [23]): < 0.2 mg/kg/day | LOAEL (mouse [4]; [24]): > 18 mg/kg/day | NOAEL (mouse [4]; [24]): ≥ 18 mg/kg/day | LEL (rat [5]): 37.5 mg/kg/day | LOAEL (rat [5]): 37.5 mg/kg/day | NEL (rat [5]): < 37.5 mg/kg/day | NOAEL (rat [5]): < 37.5 mg/kg/day | LEL (mouse [6]): 75 mg/kg/day | LOAEL (mouse [6]): 75 mg/kg/day | NEL (mouse [6]): < 75 mg/kg/day | NOAEL (mouse [6]): < 75 mg/kg/day | LOAEL (rat [7]; [25]): 6 mg/kg/day | NOAEL (rat [7]; [25]): 2 mg/kg/day | LEL (rat [7]; [26]): 2 mg/kg/day | NEL (rat [7]; [26]): < 2 mg/kg/day | LEL (rat [8]): 1000 mg/kg/day | LOAEL (rat [8]): 1000 mg/kg/day | NEL (rat [8]): < 1000 mg/kg/day | NOAEL (rat [8]): < 1000 mg/kg/day | LEL (dog [9]): 4.17 mg/kg/day | LOAEL (dog [9]): 4.17 mg/kg/day | NEL (dog [9]): < 4.17 mg/kg/day | NOAEL (dog [9]): < 4.17 mg/kg/day | LEL (rat [10]; [27]): 0.2 mg/kg/day | NEL (rat [10]; [27]): < 0.2 mg/kg/day | LOAEL (rat [10]; [28]): 2 mg/kg/day | NOAEL (rat [10]; [28]): 0.6 mg/kg/day | LEL (dog [11]): 4.17 mg/kg/day | LOAEL (dog [11]): 4.17 mg/kg/day | NEL (dog [11]): < 4.17 mg/kg/day | NOAEL (dog [11]): < 4.17 mg/kg/day | LEL (rat [12]; [29]): 100 mg/kg/day | LOAEL (rat [12]; [29]): 100 mg/kg/day | NEL (rat [12]; [29]): 25 mg/kg/day | NOAEL (rat [12]; [29]): 25 mg/kg/day | LEL (rat [12]; [30]): 100 mg/kg/day | LOAEL (rat [12]; [30]): 100 mg/kg/day | NEL (rat [12]; [30]): 25 mg/kg/day | NOAEL (rat [12]; [30]): 25 mg/kg/day | LEL (mouse [13]): 0.6 mg/kg/day | LOAEL (mouse [13]): 0.6 mg/kg/day | NEL (mouse [13]): < 0.6 mg/kg/day | NOAEL (mouse [13]): < 0.6 mg/kg/day | LOAEL (dog [14]; systemic / in life observation / clinical signs / defecation (diarrhea) + systemic / in life observation / clinical signs / emesis): 3.11 mg/kg/day | NOAEL (dog [14]; systemic / in life observation / clinical signs / defecation (diarrhea) + systemic / in life observation / clinical signs / emesis + …): 0.331 mg/kg/day | LEL (dog [14]; [31]): 0.288 mg/kg/day | NEL (dog [14]; [31]): < 0.288 mg/kg/day | NEL (rat [15]; [32]): 4.17 mg/kg/day | NOAEL (rat [15]; [32]): 4.17 mg/kg/day | LEL (rat [15]; [33]): 25 mg/kg/day | LOAEL (rat [15]; [33]): 25 mg/kg/day

CC(Cl)CCl (stereo not drawn) [1,2-Dichloropropane]
LEL (rat [16]; systemic / in life observation / body weight / body weight + systemic / in life observation / mortality / mortality): 500 mg/kg/day | LOAEL (rat [16]; [34]): > 1000 mg/kg/day | NEL (rat [16]; [34]): 250 mg/kg/day | NOAEL (rat [16]; [34]): ≥ 1000 mg/kg/day | LEL (mouse [17]): 30 mg/kg/day | LOAEL (mouse [17]): 500 mg/kg/day | NEL (mouse [17]): < 30 mg/kg/day | NOAEL (mouse [17]): 250 mg/kg/day | LEL (rat [18]): 62 mg/kg/day | LOAEL (rat [18]): 125 mg/kg/day | NEL (rat [18]): < 62 mg/kg/day | LOAEL (mouse [19]; systemic / pathology microscopic / liver / hypertrophy + systemic / pathology microscopic / liver / necrosis): 250 mg/kg/day | LEL (mouse [19]; [35]): 125 mg/kg/day | NEL (mouse [19]; [35]): < 125 mg/kg/day | NOAEL (mouse [19]; [35]): 125 mg/kg/day

Reference: EPA's ToxRefDB 2
